Counter-ions that a name gives are not always drawn. Like-named read-outs stand apart in the source and are kept apart here.
What was measured:
Type in all cases: cell-based
[1] = test system: Candida guilliermondii AHU 3654; experiment: Antifungal test when a serum is added; conditions: Meyerozyma guilliermondii, 27° C, read-out: M.I.C. of serum added
Experimental: (§1) Respective agar plates were prepared by dissolving compounds under test in aseptic water to make a two fold dilution series, taking each 1 milliliter of said diluted solutions and 9 ml of Sabouraud medium into a petri dish, and sufficiently admixing the same.
(§2) On the other hand, an inoculum was prepared by cultivating an examined fungus (microorganism) on the Sabouraud slant medium and suspending two loopful of the incubated fungus in 10 ml of sterilized physiological saline water.
(§3) One loopful of the inoculum was streaked on the above-mentioned agar plate. After the agar plate was incubated at a defined temperature for a predetermined period of time to determine the minimal inhibitory concentration (M.I.C.).
(§4) Minimal inhibitory concentration (M.I.C.) was determined by preparing the agar plate medium in the same manner of the preceding pharmacological test 1, except for the addition of the horse serum. The concentration of the component in the medium was finally corrected, so that it may amount to the concentration of the component when the horse serum was not added.
(§5) Incubation temperature: […]

Candida utilis AHU 3053 = experiment: Antifungal test when a serum is added; conditions: Williopsis jadinii, 27° C, read-out: M.I.C. of serum added
Experimental: as §1, §2, §3, §4, §5

[2] = test system: Candida albicans NAKAGAWA IFM 4017; experiment: Antifungal test when a serum is added; conditions: 27° C, read-out: M.I.C. of serum added
Experimental: as §1, §2, §3, §4, §5

[3] = test system: Candida tropicalis AHU 3071; experiment: Antifungal test when a serum is added; conditions: 27° C, read-out: M.I.C. of serum added
Experimental: as §1, §2, §3, §4, §5

[4] = test system: Candida albicans Yu-1200 IFM 4020; experiment: Antifungal test when a serum is added; conditions: 27° C, read-out: M.I.C. of serum added
Experimental: as §1, §2, §3, §4, §5

Candida Krusei AHU 3993 = experiment: Antifungal test when a serum is added; conditions: Pichia kudriavzevii, 27° C, read-out: M.I.C. of serum added
Experimental: as §1, §2, §3, §4, §5

[5] = test system: Candida albicans AHU 3656; experiment: Antifungal test when a serum is added; conditions: 27° C, read-out: M.I.C. of serum added
Experimental: as §1, §2, §3, §4, §5

[6] = test system: Candida albicans IFM 4080; experiment: Antifungal test when a serum is added; conditions: 27° C, read-out: M.I.C. of serum added
Experimental: as §1, §2, §3, §4, §5

Cryptococcus neoformans = experiment: Antifungal test when a serum is added; conditions: 27° C, read-out: M.I.C. of serum added
Experimental: as §1, §2, §3, §4, §5

Candida albicans = experiment: Anti-candida activity (summary)
Experimental: as §1, §2, §3
Incubation time: 3 days (72 hours)

[7] = test system: Staphylococcus aureus 209-P, Staphylococcus aureus 13-6 and Streptococcus pyogenes; experiment: Antibacterial Test (summary); conditions: 37° C., 18 hours; read-out: minimal inhibitory concentration
Experimental: (§6) A compound under test was dissolved in aseptic water to prepare a two fold dilution series. Each 1 milliliter of the solution was taken in a petri dish. Nine ml of infusion agar medium (Difco) was added to the solution, thereby preparing the agar plate for test. A pre-culture of each test strain in Tripticase soy broth medium (BBL) at 37° C. for 18 hours was streaked on the above-mentioned agar plate, and the said agar plate was incubated at 37° C. for 18 hours to determine the minimal inhibitory concentration (M.I.C.).

[8] = test system: gram-negative bacteria such as Escherichia coli NIHJ and Escherichia coli E-15; experiment: Antibacterial Test (summary); conditions: 18 h, 37° C., read-out: minimal inhibitory concentration
Experimental: as §6

Trichomonas vaginalis = experiment: Anti-trichomonal Test; conditions: 72 h, ASAMI medium containing 20% horse serum, 37° C., 3 days, read-out: minimal inhibitory concentration
Experimental: The compound under test was dissolved in aseptic water, and filtered aseptically to prepare a two fold dilution series. Each 2.6 ml ASAMI medium containing 20% of the horse serum were respectively taken into small test tubes. Onto the medium, there were incubated 0.3 ml of the two fold dilution solution of the compounds and 0.1 ml of the suspension of the ASAMI medium of Trichomonas vaginalis which was cultured at 37° C. for 3 days respectively. Incubation was carried out at 37° C. for 3 days to determine the minimal inhibitory concentration.

[9] = test system: Candida albicans IFM 4080; experiment: Antifungal Test (agar dilution M.I.C.); conditions: for MIC: Candida albicans
Experimental: as §1, §2, §3
Incubation temperature:
Incubation time: 3 days (72 hours) and
activity incubation conditions:
Incubation time 3 days (72 hours)
Incubation time 7 days (168 hours)
Incubation time 2 days (48 hours)

[10] = 168 h, 10 % horse serum, 7 days
[11] = 168 h, 30 % horse serum, 7 days

For `N=C(N)c1cccc(OCC2CCC(COc3cccc(C(=N)N)c3)CC2)c1` (stereo not shown) [Compound A, 1,4-Bis-(m,m'-amidinophenoxymethyl)-cyclohexane-dihydrochloride], which MIC ([1]; AHU3654, 72 h, 0 % horse serum, 3 days) is on record?
The MIC was 25 µg/mL.

And the MIC ([1]; AHU3654, 72 h, 10 % horse serum, 3 days)?
Its MIC is 25 µg/mL.

What about the MIC ([1]; AHU3654, 72 h, 30 % horse serum, 3 days) of the same molecule?
The MIC was 50 µg/mL.

And the MIC ([1]; AHU3654, 168 h, 0 % horse serum, 7 days)?
Its MIC is 25 µg/mL.

What about the MIC ([1]; AHU3654, 168 h, 10 % horse serum, 7 days) of the same molecule?
The MIC was 25 µg/mL.

What about the MIC ([1]; AHU3654, 168 h, 30 % horse serum, 7 days) of the same molecule?
Its MIC is 50 µg/mL.

And the MIC (Candida utilis AHU 3053; AHU3053, 72 h, 0 % horse serum, 3 days)?
The MIC was 3.13 µg/mL.

And the MIC (Candida utilis AHU 3053; AHU3053, 72 h, 10 % horse serum, 3 days)?
The MIC was 3.13 µg/mL.

What about the MIC (Candida utilis AHU 3053; AHU3053, 72 h, 30 % horse serum, 3 days) of the same molecule?
Its MIC is less than 0.8 µg/mL.

What about the MIC (Candida utilis AHU 3053; AHU3053, 168 h, 0 % horse serum, 7 days) of the same molecule?
Its MIC is 3.13 µg/mL.

What about the MIC (Candida utilis AHU 3053; AHU3053, 168 h, 10 % horse serum, 7 days) of the same molecule?
The MIC was 6.25 µg/mL.

And the MIC (Candida utilis AHU 3053; AHU3053, 168 h, 30 % horse serum, 7 days)?
The MIC was less than 0.8 µg/mL.

And the MIC ([2]; 72 h, 0 % horse serum, 3 days)?
Its MIC is 3.13 µg/mL.

And the MIC ([2]; 72 h, 10 % horse serum, 3 days)?
Its MIC is 25 µg/mL.

What about the MIC ([2]; 72 h, 30 % horse serum, 3 days) of the same molecule?
The MIC was 6.25 µg/mL.

And the MIC ([2]; 168 h, 0 % horse serum, 7 days)?
The MIC was 3.13 µg/mL.

And the MIC [2, 10]?
Its MIC is 25 µg/mL.

And the MIC [2, 11]?
Its MIC is 6.2 µg/mL.

And the MIC ([3]; AHU3071, 72 h, 0 % horse serum, 3 days)?
Its MIC is 3.13 µg/mL.

What about the MIC ([3]; AHU3071, 72 h, 10 % horse serum, 3 days) of the same molecule?
Its MIC is 6.25 µg/mL.

What about the MIC ([3]; AHU3071, 72 h, 30 % horse serum, 3 days) of the same molecule?
The MIC was 12.5 µg/mL.

What about the MIC ([3]; AHU3071, 168 h, 0 % horse serum, 7 days) of the same molecule?
Its MIC is 3.13 µg/mL.

And the MIC ([3]; AHU3071, 168 h, 10 % horse serum, 7 days)?
The MIC was 6.25 µg/mL.

And the MIC ([3]; AHU3071, 168 h, 30 % horse serum, 7 days)?
Its MIC is 12.5 µg/mL.

And the MIC ([4]; YU1200IFM4020, 72 h, 0 % horse serum, 3 days)?
The MIC was less than 1.56 µg/mL.

What about the MIC ([4]; YU1200IFM4020, 72 h, 10 % horse serum, 3 days) of the same molecule?
The MIC was 6.25 µg/mL.

What about the MIC ([4]; YU1200IFM4020, 72 h, 30 % horse serum, 3 days) of the same molecule?
Its MIC is 25 µg/mL.

What about the MIC ([4]; YU1200IFM4020, 168 h, 0 % horse serum, 7 days) of the same molecule?
Its MIC is 3.13 µg/mL.

And the MIC ([4]; YU1200IFM4020, 168 h, 10 % horse serum, 7 days)?
The MIC was 6.25 µg/mL.

What about the MIC ([4]; YU1200IFM4020, 168 h, 30 % horse serum, 7 days) of the same molecule?
The MIC was 25 µg/mL.

What about the MIC (Candida Krusei AHU 3993; 72 h, 0 % horse serum, 3 days) of the same molecule?
The MIC was greater than 100 µg/mL.

And the MIC (Candida Krusei AHU 3993; 72 h, 10 % horse serum, 3 days)?
Its MIC is 200 µg/mL.

And the MIC (Candida Krusei AHU 3993; 72 h, 30 % horse serum, 3 days)?
Its MIC is 100 µg/mL.

What about the MIC (Candida Krusei AHU 3993; 168 h, 0 % horse serum, 7 days) of the same molecule?
Its MIC is greater than 100 µg/mL.

What about the MIC (Candida Krusei AHU 3993; [10]) of the same molecule?
The MIC was greater than 200 µg/mL.

What about the MIC (Candida Krusei AHU 3993; [11]) of the same molecule?
Its MIC is 100 µg/mL.

And the MIC ([5]; AHU3656, 72 h, 0 % horse serum, 3 days)?
Its MIC is 3.13 µg/mL.

What about the MIC ([5]; AHU3656, 72 h, 10 % horse serum, 3 days) of the same molecule?
Its MIC is 25 µg/mL.

And the MIC ([5]; AHU3656, 72 h, 30 % horse serum, 3 days)?
Its MIC is 25 µg/mL.

And the MIC ([5]; AHU3656, 168 h, 0 % horse serum, 7 days)?
Its MIC is 6.25 µg/mL.

What about the MIC ([5]; AHU3656, 168 h, 10 % horse serum, 7 days) of the same molecule?
Its MIC is 25 µg/mL.

What about the MIC ([5]; AHU3656, 168 h, 30 % horse serum, 7 days) of the same molecule?
The MIC was 25 µg/mL.

And the MIC ([6]; IFM4080, 72 h, 0 % horse serum, 3 days)?
The MIC was 3.13 µg/mL.

And the MIC ([6]; IFM4080, 72 h, 10 % horse serum, 3 days)?
Its MIC is 12.5 µg/mL.

What about the MIC ([6]; IFM4080, 72 h, 30 % horse serum, 3 days) of the same molecule?
Its MIC is 12.5 µg/mL.

What about the MIC ([6]; IFM4080, 168 h, 0 % horse serum, 7 days) of the same molecule?
Its MIC is 6.25 µg/mL.

What about the MIC ([6]; IFM4080, 168 h, 10 % horse serum, 7 days) of the same molecule?
Its MIC is 12.5 µg/mL.

What about the MIC ([6]; IFM4080, 168 h, 30 % horse serum, 7 days) of the same molecule?
The MIC was 12.5 µg/mL.

What about the MIC (Cryptococcus neoformans; 72 h, 0 % horse serum, 3 days) of the same molecule?
Its MIC is 3.13 µg/mL.

And the MIC (Cryptococcus neoformans; 72 h, 10 % horse serum, 3 days)?
The MIC was 6.25 µg/mL.

And the MIC (Cryptococcus neoformans; 72 h, 30 % horse serum, 3 days)?
Its MIC is 12.5 µg/mL.

What about the MIC (Cryptococcus neoformans; 168 h, 0 % horse serum, 7 days) of the same molecule?
The MIC was 3.13 µg/mL.

What about the MIC (Cryptococcus neoformans; [10]) of the same molecule?
The MIC was 12.5 µg/mL.

And the MIC (Cryptococcus neoformans; [11])?
Its MIC is 12.5 µg/mL.

What about the “anti-candida activity compared with nystatin” value (Candida albicans) of the same molecule?
The value was “more excellent anti-candida activity than that of the nystatin”.

And the MIC [7]?
The MIC was 3.13 to 6.25 µg/mL.

What about the MIC [8] of the same molecule?
Its MIC is 100 to 200 µg/mL.

And the MIC (Trichomonas vaginalis)?
The MIC was 200 µg/mL.

And the MIC ([9]; IFM4080, 48 h, Table 3, 37° C., 2 days)?
Its MIC is 0.8 µg/mL.

And the MIC ([9]; IFM4080, 72 h, Table 3, 27° C., 3 days)?
Its MIC is 3.13 µg/mL.

And the MIC ([9]; IFM4080, 168 h, Table 3, 27° C., 7 days)?
The MIC was 6.25 µg/mL.

And the M.I.C. ([9]; Table 1, 27° C., 3 days incubation)?
Its M.I.C. is 3.13 µg/mL.

What about the M.I.C. ([9]; Table 1, 27° C., 7 days incubation) of the same molecule?
The M.I.C. was 6.25 µg/mL.

What about the M.I.C. ([9]; Table 3, 37° C., 3 days) of the same molecule?
Its M.I.C. is 3.13 µg/mL.
